This assay deals with T1, EphA3 (Homo sapiens, UniProt P29320).
T1 sequence (P29320 21-983): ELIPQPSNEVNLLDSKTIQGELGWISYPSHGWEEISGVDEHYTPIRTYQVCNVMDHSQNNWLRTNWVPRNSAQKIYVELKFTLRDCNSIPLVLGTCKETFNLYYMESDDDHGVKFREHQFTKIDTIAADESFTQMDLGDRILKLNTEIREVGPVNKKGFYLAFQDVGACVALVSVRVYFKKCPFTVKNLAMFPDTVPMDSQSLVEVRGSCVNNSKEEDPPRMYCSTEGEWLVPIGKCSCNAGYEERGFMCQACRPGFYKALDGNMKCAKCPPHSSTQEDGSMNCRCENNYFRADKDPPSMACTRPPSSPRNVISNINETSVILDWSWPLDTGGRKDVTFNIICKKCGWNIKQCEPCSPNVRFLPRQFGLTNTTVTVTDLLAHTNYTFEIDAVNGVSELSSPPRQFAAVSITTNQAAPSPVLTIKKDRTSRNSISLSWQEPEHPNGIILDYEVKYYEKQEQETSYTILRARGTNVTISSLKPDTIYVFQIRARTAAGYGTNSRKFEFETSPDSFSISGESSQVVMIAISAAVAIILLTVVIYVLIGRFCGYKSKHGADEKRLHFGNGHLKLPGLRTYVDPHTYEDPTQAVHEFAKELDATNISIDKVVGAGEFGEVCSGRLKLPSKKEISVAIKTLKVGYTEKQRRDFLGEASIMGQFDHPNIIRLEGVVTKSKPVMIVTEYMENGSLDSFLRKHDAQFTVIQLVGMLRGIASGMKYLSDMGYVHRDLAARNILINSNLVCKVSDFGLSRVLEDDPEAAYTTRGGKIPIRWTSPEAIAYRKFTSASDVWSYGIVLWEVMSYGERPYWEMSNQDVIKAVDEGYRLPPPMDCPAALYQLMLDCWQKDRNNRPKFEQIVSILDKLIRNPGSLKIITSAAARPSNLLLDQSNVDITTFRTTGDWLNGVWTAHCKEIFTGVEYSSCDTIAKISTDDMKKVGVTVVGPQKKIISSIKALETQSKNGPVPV
Nature of the assay: Surface Plasmon Resonance (SPR) determination of binding and unbinding kinetics. To be noted: immobilized EphA3, 25 °C. The method, then: The affinity of compound 2 towards EphA3 was determined using Surface Plasmon Resonance measurements on a ProteOn XPR36 (Bio-Rad Laboratories, AG). EphA3 was immobilized on a GLH chip (Bio-Rad Laboratories AG) by standard amine coupling procedures achieving a RU of 4000-6000 and equilibrated with steriled-filtered buffer (10mM HEPES, 150mM NaCl, 3mM EDTA, 0.005% Tween 20 pH 8.0) with a flow rate of 60µL/min. Association of compound 2 was performed at 25 °C using serial dilutions of the inhibitors in duplicates for 400s, whereas dissociation of the inhibitors from the chip was monitored for 36,000 seconds. Data were normalized using interspot referencing and subtraction of a separate analyte channel run with buffer and BSA. All sensograms were fitted using a 1:1 Langmuir model provided by the ProteOn Manager Software (Bio-Rad Laboratories AG), and the association (kon) and dissociation ([…]) rate constants were used to determine the equilibrium dissociation constants (KD).

Results on 1 compound are retold here after patent EP2924040A1, “2-Amino-1-(o-tolyl)pyrrolo[3,2-b]quinoxaline-3-carboxamide derivates” (Universität Zürich, priority 2014, dated 2015).

A word on the Kd: it is the free concentration of one partner at which half of the binding sites on the other are occupied at equilibrium, for simple one-to-one binding. As a reminder, the residence time is the mean lifetime of the complex, commonly the reciprocal of the off-rate. As to `Cc1ccc(O)cc1-n1c(N)c(C(N)=O)c2nc3ccccc3nc21` [Compound 2, 2-Amino-1-(5-hydroxy-2-methylphenyl)-1H-pyrrolo[2,3-b]quinoxaline-3-carboxamide], the Kd (1:1 Langmuir model, read-out: dissociation constant (KD)) turned out to be 6 nM. The residence time (reciprocal value of koff, read-out: τoff (residence time) (converted)) is 11 min.
